1 compound from patent US20080207692A1, “Stabilized and preserved ketoifen ophthalmic compositions” (priority 2005, published 2008) can be followed below.

Common to all, as to assay type: physicochemical
Series [1] is described as follows: Compatibility of ketotifen with low concentrations of hydrogen peroxide.
Series [2] is described as follows: Hot stability: formulations heated at 100° C. for 24 hours.
Series [3] can be described thus: Stability of ketotifen-perborate formulations filled in polypropylene bottles and stored at 55° C. As to conditions: stored at 55° C., Table 2 formulations. The protocol: The stability of the formulations shown in Table 1 are evaluated by filling the formulations in bottles and storing the formulations at 55° C. for various times.

For `CN1CCC(=C2c3ccccc3CC(=O)c3sccc32)CC1` [ketotifen], the “Compatibility with low concentrations of hydrogen peroxide” value in series [1] (formulated at a pH lower than neutral pH) is given as “compatible”; in series [1] (formulated at neutral pH, i.e., a pH of about 7), “not compatible”. In addition, the “Stability of ketotifen (in words)” value in series [2] and in series [3] was “stable” in each case.
